Test results: patent publication US9695155B2, “Herbicidal substituted pyrimidinyloxy benzene compounds” (E. I. DU PONT DE NEMOURS AND COMPANY, priority 2013, dated 2017)

Experiments:
Test in all cases: Test E preemergence
[1] = test system: corn; type: in vivo, Zea mays; details: for Corn plant response rating: scale 0 to 100 (0 no effect, 100 complete control); for Plant response rating, Corn: scale 0 to 100, 0 no effect, 100 complete control
Text: (§1) Seeds of plant species selected from corn (Zea mays), soybean (Glycine max), velvetleaf (Abutilon theophrasti), lambsquarters (Chenopodium album), wild poinsettia (Euphorbia heterophylla), palmer pigweed (Amaranthus palmeri), waterhemp (common waterhemp, Amaranthus rudis), surinam grass (Brachiaria decumbens), large (Lg) crabgrass (Digitaria sanguinalis), Brazilian crabgrass (Digitaria horizontalis), fall panicum (Panicum dichotomiflorum), giant foxtail (Setaria faberii), green foxtail (Setaria viridis), goosegrass (Eleusine indica), johnsongrass (Sorghum halepense), ragweed (common ragweed, Ambrosia elatior), barnyardgrass (Echinochloa crus-galli), sandbur (southern sandbur, Cenchrus echinatus), arrowleaf sida (Sida rhombifolia), Italian ryegrass (Lolium multiflorum), dayflower (Virginia (VA) dayflower, Commelina virginica), field bindweed (Convolvulus arvensis), morningglory (Ipomoea coccinea), nightshade (eastern black nightshade, Solanum ptycanthum), kochia (Kochia scoparia), yellow nutsedge (Cyperus esculentus), cocklebur (common cocklebur, Xanthium strumarium), smartweed (ladysthumb smartweed, and hairy beggarticks (Bidens pilosa), were planted into a silt loam soil and treated preemergence with test chemicals formulated in a non-phytotoxic solvent mixture which included a surfactant.
(§2) At the same time, plants from these crop and weed species and also horseweed (Canada horseweed, Conyza canadensis), waterhemp_RES1, (ALS & Triazine resistant common waterhemp, Amaranthus rudis), and waterhemp_RES2, (ALS & HPPD resistant common waterhemp, Amaranthus rudis) were planted in pots containing Redi-Earth® planting medium (Scotts Company, 14111 Scottslawn Road, Marysville, Ohio 43041) comprising spaghnum peat moss, vermiculite, wetting agent and starter nutrients were treated with postemergence applications of test chemicals formulated in the same manner. Plants ranged in height from 2 to 18 cm for postemergence treatments (1- to 4-leaf stage). Treated plants and controls were maintained in a greenhouse for 14 to 21 days, after which time all species were compared to controls and visually evaluated. Plant response ratings, summarized in Table E, are based on a scale of 0 to 100 where 0 is no effect and 100 is complete control. A dash (-) response means no test result.

[2] = test system: soybean; type: in vivo, Glycine max; details: for Soybean plant response rating: scale 0 to 100 (0 no effect, 100 complete control); for Plant response rating, Soybean: scale 0 to 100, 0 no effect, 100 complete control
Text: as §1, §2

[3] = test system: velvetleaf; type: in vivo, Abutilon theophrasti; details: for Velvetleaf plant response rating: scale 0 to 100 (0 no effect, 100 complete control); for Plant response rating, Velvetleaf: scale 0 to 100, 0 no effect, 100 complete control
Summary of the method: (§3)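 Test chemicals formulated in a non-phytotoxic solvent mixture containing a surfactant were applied preemergence to seeds in silt loam soil or postemergence to plants at the 1- to 4-leaf stage in potting mix. After 14 to 21 days in a greenhouse, injury was visually rated against controls on a 0-100 scale (0 = no effect, 100 = complete control).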

[4] = test system: waterhemp; type: in vivo, Amaranthus rudis; details: for Waterhemp plant response rating: scale 0 to 100 (0 no effect, 100 complete control); for Plant response rating, Waterhemp: scale 0 to 100, 0 no effect, 100 complete control
Summary of the method: as §3

[5] = test system: large (Lg) crabgrass; type: in vivo, Digitaria sanguinalis; details: for Crabgrass, Large plant response rating: scale 0 to 100 (0 no effect, 100 complete control); for Plant response rating, Crabgrass, Large: scale 0 to 100, 0 no effect, 100 complete control
Summary of the method: as §3

[6] = test system: fall panicum; type: in vivo, Panicum dichotomiflorum; details: for Panicum, Fall plant response rating: scale 0 to 100 (0 no effect, 100 complete control); for Plant response rating, Panicum, Fall: scale 0 to 100, 0 no effect, 100 complete control
Text: as §1, §2

[7] = test system: giant foxtail; type: in vivo, Setaria faberii; details: for Foxtail, Giant plant response rating: scale 0 to 100 (0 no effect, 100 complete control); for Plant response rating, Foxtail, Giant: scale 0 to 100, 0 no effect, 100 complete control
Summary of the method: as §3

[8] = test system: barnyardgrass; type: in vivo, Echinochloa crus-galli; details: for Barnyardgrass plant response rating: scale 0 to 100 (0 no effect, 100 complete control); for Plant response rating, Barnyardgrass: scale 0 to 100, 0 no effect, 100 complete control
Summary of the method: as §3

[9] = test system: field bindweed; type: in vivo, Convolvulus arvensis; details: for Field Bindweed plant response rating: scale 0 to 100 (0 no effect, 100 complete control); for Plant response rating, Field Bindweed: scale 0 to 100, 0 no effect, 100 complete control
Text: as §1, §2

[10] = test system: nightshade; type: in vivo, Solanum ptycanthum; details: for Nightshade plant response rating: scale 0 to 100 (0 no effect, 100 complete control); for Plant response rating, Nightshade: scale 0 to 100, 0 no effect, 100 complete control
Summary of the method: as §3

Structure (SMILES): FC(F)(F)c1cnn(-c2ccccc2Oc2ncc(Cl)cn2)c1 [Compound 16]
- Corn plant response rating ([1]; 16 g ai/ha): 0
- Corn plant response rating ([1]; 31 g ai/ha): 0
- Corn plant response rating ([1]; 62 g ai/ha): 0
- Plant response rating, Corn ([1]; 125 g ai/ha): 20
- Plant response rating, Corn ([1]; 250 g ai/ha): 25
- Soybean plant response rating ([2]; 16 g ai/ha): 0
- Soybean plant response rating ([2]; 31 g ai/ha): 60
- Soybean plant response rating ([2]; 62 g ai/ha): 60
- Plant response rating, Soybean ([2]; 125 g ai/ha): 90
- Plant response rating, Soybean ([2]; 250 g ai/ha): 95
- Velvetleaf plant response rating ([3]; 16 g ai/ha): 0
- Velvetleaf plant response rating ([3]; 31 g ai/ha): 50
- Velvetleaf plant response rating ([3]; 62 g ai/ha): 85
- Plant response rating, Velvetleaf ([3]; 125 g ai/ha): 100
- Plant response rating, Velvetleaf ([3]; 250 g ai/ha): 100
- Waterhemp plant response rating ([4]; 16 g ai/ha): 100
- Waterhemp plant response rating ([4]; 31 g ai/ha): 100
- Waterhemp plant response rating ([4]; 62 g ai/ha): 100
- Plant response rating, Waterhemp ([4]; 125 g ai/ha): 100
- Plant response rating, Waterhemp ([4]; 250 g ai/ha): 100
- Crabgrass, Large plant response rating ([5]; 16 g ai/ha): 0
- Crabgrass, Large plant response rating ([5]; 31 g ai/ha): 0
- Crabgrass, Large plant response rating ([5]; 62 g ai/ha): 65
- Plant response rating, Crabgrass, Large ([5]; 125 g ai/ha): 80
- Plant response rating, Crabgrass, Large ([5]; 250 g ai/ha): 100
- Panicum, Fall plant response rating ([6]; 16 g ai/ha): 0
- Panicum, Fall plant response rating ([6]; 31 g ai/ha): 80
- Panicum, Fall plant response rating ([6]; 62 g ai/ha): 100
- Plant response rating, Panicum, Fall ([6]; 125 g ai/ha): 100
- Plant response rating, Panicum, Fall ([6]; 250 g ai/ha): 100
- Foxtail, Giant plant response rating ([7]; 16 g ai/ha): 15
- Foxtail, Giant plant response rating ([7]; 31 g ai/ha): 20
- Foxtail, Giant plant response rating ([7]; 62 g ai/ha): 100
- Plant response rating, Foxtail, Giant ([7]; 125 g ai/ha): 100
- Plant response rating, Foxtail, Giant ([7]; 250 g ai/ha): 100
- Barnyardgrass plant response rating ([8]; 16 g ai/ha, preemergence): 0
- Barnyardgrass plant response rating ([8]; 31 g ai/ha, preemergence): 0
- Plant response rating, Barnyardgrass ([8]; Preemergence, 62 g ai/ha): 0
- Plant response rating, Barnyardgrass ([8]; preemergence, 125 g ai/ha): 10
- Plant response rating, Barnyardgrass ([8]; preemergence, 250 g ai/ha): 40
- Field Bindweed plant response rating ([9]; 16 g ai/ha): 0
- Field Bindweed plant response rating ([9]; 31 g ai/ha): 0
- Field Bindweed plant response rating ([9]; 62 g ai/ha): 0
- Plant response rating, Field Bindweed ([9]; 125 g ai/ha): 30
- Plant response rating, Field Bindweed ([9]; 250 g ai/ha): 60
- Nightshade plant response rating ([10]; 16 g ai/ha): 0
- Nightshade plant response rating ([10]; 31 g ai/ha): 98
- Nightshade plant response rating ([10]; 62 g ai/ha): 100
- Plant response rating, Nightshade ([10]; 125 g ai/ha): 100
- Plant response rating, Nightshade ([10]; 250 g ai/ha): 100

Structure (SMILES): N#Cc1cccc(Oc2ncc(Cl)cn2)c1-n1cc(C(F)(F)F)cn1 [Compound 58, 3-[(5-chloro-2-pyrimidinyl)oxy]-2-[4-(trifluoromethyl)-1H-pyrazol-1-yl]benzonitrile]
- Corn plant response rating ([1]; 16 g ai/ha): 0
- Corn plant response rating ([1]; 31 g ai/ha): 5
- Corn plant response rating ([1]; 62 g ai/ha): 40
- Plant response rating, Corn ([1]; 125 g ai/ha): 65
- Plant response rating, Corn ([1]; 250 g ai/ha): 70
- Soybean plant response rating ([2]; 16 g ai/ha): 0
- Soybean plant response rating ([2]; 31 g ai/ha): 0
- Soybean plant response rating ([2]; 62 g ai/ha): 60
- Plant response rating, Soybean ([2]; 125 g ai/ha): 75
- Plant response rating, Soybean ([2]; 250 g ai/ha): 95
- Velvetleaf plant response rating ([3]; 16 g ai/ha): 40
- Velvetleaf plant response rating ([3]; 31 g ai/ha): 70
- Velvetleaf plant response rating ([3]; 62 g ai/ha): 90
- Plant response rating, Velvetleaf ([3]; 125 g ai/ha): 100
- Plant response rating, Velvetleaf ([3]; 250 g ai/ha): 100
- Waterhemp plant response rating ([4]; 16 g ai/ha): 98
- Waterhemp plant response rating ([4]; 31 g ai/ha): 100
- Waterhemp plant response rating ([4]; 62 g ai/ha): 100
- Plant response rating, Waterhemp ([4]; 125 g ai/ha): 100
- Plant response rating, Waterhemp ([4]; 250 g ai/ha): 100
- Crabgrass, Large plant response rating ([5]; 16 g ai/ha): 75
- Crabgrass, Large plant response rating ([5]; 31 g ai/ha): 100
- Crabgrass, Large plant response rating ([5]; 62 g ai/ha): 100
- Plant response rating, Crabgrass, Large ([5]; 125 g ai/ha): 100
- Plant response rating, Crabgrass, Large ([5]; 250 g ai/ha): 100
- Panicum, Fall plant response rating ([6]; 16 g ai/ha): 95
- Panicum, Fall plant response rating ([6]; 31 g ai/ha): 98
- Panicum, Fall plant response rating ([6]; 62 g ai/ha): 100
- Plant response rating, Panicum, Fall ([6]; 125 g ai/ha): 100
- Plant response rating, Panicum, Fall ([6]; 250 g ai/ha): 100
- Foxtail, Giant plant response rating ([7]; 16 g ai/ha): 75
- Foxtail, Giant plant response rating ([7]; 31 g ai/ha): 100
- Foxtail, Giant plant response rating ([7]; 62 g ai/ha): 100
- Plant response rating, Foxtail, Giant ([7]; 125 g ai/ha): 100
- Plant response rating, Foxtail, Giant ([7]; 250 g ai/ha): 100
- Barnyardgrass plant response rating ([8]; 16 g ai/ha, preemergence): 20
- Barnyardgrass plant response rating ([8]; 31 g ai/ha, preemergence): 40
- Plant response rating, Barnyardgrass ([8]; Preemergence, 62 g ai/ha): 90
- Plant response rating, Barnyardgrass ([8]; preemergence, 125 g ai/ha): 95
- Plant response rating, Barnyardgrass ([8]; preemergence, 250 g ai/ha): 98
- Field Bindweed plant response rating ([9]; 16 g ai/ha): 0
- Field Bindweed plant response rating ([9]; 31 g ai/ha): 20
- Field Bindweed plant response rating ([9]; 62 g ai/ha): 70
- Plant response rating, Field Bindweed ([9]; 125 g ai/ha): 98
- Plant response rating, Field Bindweed ([9]; 250 g ai/ha): 100
- Nightshade plant response rating ([10]; 16 g ai/ha): 90
- Nightshade plant response rating ([10]; 31 g ai/ha): 98
- Nightshade plant response rating ([10]; 62 g ai/ha): 100
- Plant response rating, Nightshade ([10]; 125 g ai/ha): 100
- Plant response rating, Nightshade ([10]; 250 g ai/ha): 100
